system: blackgrass; experiment: Test Example 5: herbicidal effect by foliage application, plastic box (Table 20, symbol J); format: in vivo, blackgrass (Alopecurus myosuroides); settings: foliage application, AAH 320 g/ha, evaluated three weeks after application
Procedure, shortened: (§1)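 Plants sown in sterilized diluvial soil and grown 14 days in a greenhouse at 25° C to 30° C, then sprayed on the foliage with the compound's emulsion diluted in water to a predetermined herbicide amount. Injury to weeds and crops scored three weeks after application on a visual rating scale.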

Row | Structure (SMILES) | J: blackgrass, herbicidal effect (criteria 0-5)
1 | CCOC(=O)Oc1c(C)nn(C)c(=O)c1-c1c(-c2ccc(OC(F)F)cc2)sc2ccc(F)cc12 [2-292] | 4 (Herbicidal rate of 70% or more and less than 90%)

system: Japanese bulrush; experiment: Test Example 1: herbicidal activity, application before weed generation under submerged conditions (Table 16, symbol B); format: in vivo, Japanese bulrush (Schoenoplectus juncoides); settings: 320 g/ha applied herbicide
Procedure, shortened: (§2)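 Alluvial soil was flooded to 4 cm depth, weed seeds were sown mixed and 2.5-leaf rice seedlings were transplanted. On sowing day, the compound's emulsion, diluted in water to a set dose, was applied to the water surface. Plants grew at 25–30 °C and were scored 0–5 after three weeks.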

Row | Structure (SMILES) | Herbicidal effect on B: Japanese bulrush (grade 0-5)
2 | CCOC(=O)Oc1c(C)nn(C)c(=O)c1-c1c(-c2ccc(OC(F)F)cc2)sc2ccc(F)cc12 [2-292] | 5 (Herbicidal rate of 90% or more (almost completely withered))

system: redroot pigweed; experiment: Test Example 4: herbicidal effect by soil treatment (Table 19, symbol N); format: in vivo, redroot pigweed (Amaranthus retroflexus); settings: amount of applied herbicide 320 g/ha
Procedure, shortened: (§3)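 Three weeks of greenhouse growth at 25° C. to 30° C. followed a uniform surface spray of water-diluted emulsion at a predetermined herbicide amount. Seeds had been sown beforehand under about 1.5 cm of sterilized diluvial soil. Grading followed criteria set out in an earlier test.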

Row | Structure (SMILES) | herbicidal effect on N: redroot pigweed
3 | CCOC(=O)Oc1c(C)nn(C)c(=O)c1-c1c(-c2ccc(OC(F)F)cc2)sc2ccc(F)cc12 [2-292] | 5 (Herbicidal rate of 90% or more (almost completely withered))

system: barnyard grass; experiment: Test Example 5: herbicidal effect by foliage application, plastic box (Table 20, symbol H); format: in vivo, barnyard grass (Echinochloa crus-galli); settings: foliage application, AAH 320 g/ha, evaluated three weeks after application
Procedure, shortened: as §1

Row | Structure (SMILES) | H: barnyard grass, herbicidal effect (criteria 0-5)
4 | CCOC(=O)Oc1c(C)nn(C)c(=O)c1-c1c(-c2ccc(OC(F)F)cc2)sc2ccc(F)cc12 [2-292] | 5 (Herbicidal rate of 90% or more (almost completely withered))

system: rice flat sedge; experiment: Test Example 3: herbicidal effect by foliage application, Wagner pot (Table 18, symbol E); format: in vivo, rice flat sedge (Cyperus iria); settings: amount of applied herbicide 320 g/ha
Procedure, shortened: (§4)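 Plants were sown in alluvial soil held under 0.1–0.5 cm standing water and grown 14 days in a greenhouse at 25–30 °C. An emulsifiable formulation, water-diluted to the set dose, was then sprayed onto the foliage, and effects were scored three weeks later using previously defined criteria.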

Row | Structure (SMILES) | herbicidal effect on E: rice flat sedge
5 | CCOC(=O)Oc1c(C)nn(C)c(=O)c1-c1c(-c2ccc(OC(F)F)cc2)sc2ccc(F)cc12 [2-292] | 4 (Herbicidal rate of 70% or more and less than 90%)

system: wild oat; experiment: Test Example 5: herbicidal effect by foliage application, plastic box (Table 20, symbol I); format: in vivo, wild oat (Avena fatua); settings: foliage application, AAH 320 g/ha, evaluated three weeks after application
Procedure, shortened: as §1

Row | Structure (SMILES) | I: wild oat, herbicidal effect (criteria 0-5)
6 | CCOC(=O)Oc1c(C)nn(C)c(=O)c1-c1c(-c2ccc(OC(F)F)cc2)sc2ccc(F)cc12 [2-292] | 3 (Herbicidal rate of 40% or more and less than 70%)

system: Chinese sprangletop; experiment: Test Example 3: herbicidal effect by foliage application, Wagner pot (Table 18, symbol D); format: in vivo, chinese sprangletop (Leptochloa chinensis); settings: amount of applied herbicide 320 g/ha
Procedure, shortened: as §4

Row | Structure (SMILES) | herbicidal effect on D: Chinese sprangletop
7 | CCOC(=O)Oc1c(C)nn(C)c(=O)c1-c1c(-c2ccc(OC(F)F)cc2)sc2ccc(F)cc12 [2-292] | 4 (Herbicidal rate of 70% or more and less than 90%)

system: windgrass; experiment: Test Example 4: herbicidal effect by soil treatment (Table 19, symbol L); format: in vivo, windgrass (Apera spica-venti); settings: amount of applied herbicide 320 g/ha
Procedure, shortened: as §3

Row | Structure (SMILES) | herbicidal effect on L: windgrass
8 | CCOC(=O)Oc1c(C)nn(C)c(=O)c1-c1c(-c2ccc(OC(F)F)cc2)sc2ccc(F)cc12 [2-292] | 1 (Herbicidal rate of 5% or more and less than 20%)

system: barnyard grass; experiment: Test Example 3: herbicidal effect by foliage application, Wagner pot (Table 18, symbol H); format: in vivo, barnyard grass (Echinochloa crus-galli); settings: amount of applied herbicide 320 g/ha
Procedure, shortened: as §4

Row | Structure (SMILES) | herbicidal effect on H: barnyard grass
9 | CCOC(=O)Oc1c(C)nn(C)c(=O)c1-c1c(-c2ccc(OC(F)F)cc2)sc2ccc(F)cc12 [2-292] | 5 (Herbicidal rate of 90% or more (almost completely withered))

system: late watergrass; experiment: Test Example 1: herbicidal activity, application before weed generation under submerged conditions (Table 16, symbol A); format: in vivo, late watergrass (Echinochloa oryzicola); settings: 320 g/ha applied herbicide
Procedure, shortened: as §2

Row | Structure (SMILES) | Herbicidal effect on A: late watergrass (grade 0-5)
10 | CCOC(=O)Oc1c(C)nn(C)c(=O)c1-c1c(-c2ccc(OC(F)F)cc2)sc2ccc(F)cc12 [2-292] | 5 (Herbicidal rate of 90% or more (almost completely withered))

system: late watergrass; experiment: Test Example 2: herbicidal activity, application during weed generation under submerged conditions (Table 17, symbol A); format: in vivo, late watergrass (Echinochloa oryzicola); settings: AAH 320 g/ha; application during weed generation, submerged conditions
Procedure, shortened: (§5)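 In this pot test, flooded alluvial soil (water depth 4 cm) holds all three species sown as a mixture. Once seedlings have one to two leaves, the compound's emulsion, thinned with water to the intended dose, is poured on the water; grading follows after three weeks on the earlier criteria.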

Row | Structure (SMILES) | herbicidal effect rating, A: late watergrass
11 | CCOC(=O)Oc1c(C)nn(C)c(=O)c1-c1c(-c2ccc(OC(F)F)cc2)sc2ccc(F)cc12 [2-292] | 5 (Herbicidal rate of 90% or more (almost completely withered))

system: Italian ryegrass; experiment: Test Example 4: herbicidal effect by soil treatment (Table 19, symbol K); format: in vivo, Italian ryegrass (Lolium multiflorum); settings: amount of applied herbicide 320 g/ha
Procedure, shortened: as §3

Row | Structure (SMILES) | herbicidal effect on K: Italian ryegrass
12 | CCOC(=O)Oc1c(C)nn(C)c(=O)c1-c1c(-c2ccc(OC(F)F)cc2)sc2ccc(F)cc12 [2-292] | 5 (Herbicidal rate of 90% or more (almost completely withered))

system: oval-leafed pondweed; experiment: Test Example 2: herbicidal activity, application during weed generation under submerged conditions (Table 17, symbol C); format: in vivo, oval-leafed pondweed (Monochoria vaginalis); settings: AAH 320 g/ha; application during weed generation, submerged conditions
Procedure, shortened: as §5

Row | Structure (SMILES) | herbicidal effect rating, C: oval-leafed pondweed
13 | CCOC(=O)Oc1c(C)nn(C)c(=O)c1-c1c(-c2ccc(OC(F)F)cc2)sc2ccc(F)cc12 [2-292] | 5 (Herbicidal rate of 90% or more (almost completely withered))

system: persian speedwell; experiment: Test Example 5: herbicidal effect by foliage application, plastic box (Table 20, symbol R); format: in vivo, Persian speedwell (Veronica persica); settings: foliage application, AAH 320 g/ha, evaluated three weeks after application
Procedure, shortened: as §1

Row | Structure (SMILES) | R: persian speedwell, herbicidal effect (criteria 0-5)
14 | CCOC(=O)Oc1c(C)nn(C)c(=O)c1-c1c(-c2ccc(OC(F)F)cc2)sc2ccc(F)cc12 [2-292] | 5 (Herbicidal rate of 90% or more (almost completely withered))

system: southern crabgrass; experiment: Test Example 5: herbicidal effect by foliage application, plastic box (Table 20, symbol F); format: in vivo, southern crabgrass (Digitaria ciliaris); settings: foliage application, AAH 320 g/ha, evaluated three weeks after application
Procedure, shortened: as §1

Row | Structure (SMILES) | F: southern crabgrass, herbicidal effect (criteria 0-5)
15 | CCOC(=O)Oc1c(C)nn(C)c(=O)c1-c1c(-c2ccc(OC(F)F)cc2)sc2ccc(F)cc12 [2-292] | 5 (Herbicidal rate of 90% or more (almost completely withered))

system: green foxtail; experiment: Test Example 5: herbicidal effect by foliage application, plastic box (Table 20, symbol G); format: in vivo, green foxtail (Setaria viridis); settings: foliage application, AAH 320 g/ha, evaluated three weeks after application
Procedure, shortened: as §1

Row | Structure (SMILES) | G: green foxtail, herbicidal effect (criteria 0-5)
16 | CCOC(=O)Oc1c(C)nn(C)c(=O)c1-c1c(-c2ccc(OC(F)F)cc2)sc2ccc(F)cc12 [2-292] | 5 (Herbicidal rate of 90% or more (almost completely withered))

Reference: US20230085307A1, “PYRIDAZINONE COMPOUND AND HERBICIDE” (NISSAN CHEMICAL CORPORATION, priority 2019, published 2023)
